# Counter-ions that a name gives are not always drawn.
# Experiments:
# [1] = 1-Week Chemical Stability Test, total impurities by HPLC-UV 230 nm; format: physicochemical
# Text: (§1) The exceptional stability of the nitrate salt of aliskiren towards water may also be shown in stability tests.
# [2] = physchem
# Text: The active ingredient aliskiren is the free base which is described specifically in EP 678503 A and it has one basic group, the amino group in position 5. […] Accordingly, one acidic group can bind to the nitrogen lone pairs of the amino group.
# [3] = Hygroscopicity, general statement; format: physicochemical
# [4] = Dynamic vapour sorption (DVS-1), isothermal water absorption or loss; format: physicochemical; conditions: for Change in Mass (%) Desorption / Change in Mass (%) Sorption: 25° C., 2 hours after equilibration
# Text: A clear characterisation of this property is achieved by means of isothermal measurements over predetermined time intervals and predetermined relative humidity using dynamic vapour sorption (DVS-1 from the company Surface Measurement Systems LTD, Marlow, Buckinghamshire, UK). […] The measurement error of this sorption method based on thermogravimetry is about 0.1%.
# [5] = Stability test towards water, water content on storage; format: physicochemical; conditions: open container and sealed ampoule, four weeks at 40° C. and 75% relative humidity
# Text: as §1
compound,measurement,setting,value
COCCCOc1cc(C[C@@H](C[C@H](N)[C@@H](O)C[C@H](C(=O)NCC(C)(C)C(N)=O)C(C)C)C(C)C)ccc1OC [HemiFumarate],"Total Impurities (HPLC-UV, 230 nm), %","[1]; 1 week, 50 C. sealed",1.1%
same,"Total Impurities (HPLC-UV, 230 nm), %","[1]; 1 week, 50 C./75% RH",9.3%
same,"Total Impurities (HPLC-UV, 230 nm), %","[1]; 1 week, 80 C. sealed",18.1%
same,"Total Impurities (HPLC-UV, 230 nm), %","[1]; 1 week, 80 C./75% RH",64.3%
same,"Total Impurities (HPLC-UV, 230 nm), %",[1]; Unstressed,1.1%
"COCCCOc1cc(C[C@@H](C[C@H](N)[C@@H](O)C[C@H](C(=O)NCC(C)(C)C(N)=O)C(C)C)C(C)C)ccc1OC [aliskiren, 2(S),4(S),5(S),7(S)—N-(3-amino-2,2-dimethyl-3-oxopropyl)-2,7-di(1-methylethyl)-4-hydroxy-5-amino-8-[4-methoxy-3-(3-methoxy-propoxy)phenyl]-octanamide]",pKa,[2],9.79
same,hygroscopicity,[3],highly hygroscopic
COCCCOc1cc(C[C@@H](C[C@H](N)[C@@H](O)C[C@H](C(=O)NCC(C)(C)C(N)=O)C(C)C)C(C)C)ccc1OC [nitrate salt of aliskiren],water absorption or loss,"[4]; DVS conditions employed, measurement error about 0.1%",no measurable water absorption or loss
same,hygroscopicity,"[4]; DVS, up to 95% RH",non-hygroscopic
same,moisture uptake,[4]; at 95% RH,0.3%
same,Change in Mass (%) Desorption,[4]; relative humidity 0%,−0.0060%
same,Change in Mass (%) Sorption,"[4]; relative humidity 0%, 39.4 mg sample",0.0001%
same,Change in Mass (%) Desorption,[4]; relative humidity 25%,0.0326%
same,Change in Mass (%) Sorption,[4]; relative humidity 25%,0.0269%
same,Change in Mass (%) Desorption,[4]; relative humidity 50%,0.0842%
same,Change in Mass (%) Sorption,[4]; relative humidity 50%,0.0821%
same,Change in Mass (%) Desorption,[4]; relative humidity 75%,0.1495%
same,Change in Mass (%) Sorption,[4]; relative humidity 75%,0.1425%
same,Change in Mass (%) Desorption,[4]; relative humidity 85%,0.1938%
same,Change in Mass (%) Sorption,[4]; relative humidity 85%,0.1864%
same,Change in Mass (%) Desorption,[4]; relative humidity 95%,0.3091%
same,Change in Mass (%) Sorption,[4]; relative humidity 95%,0.3091%
same,water content,[5],remains constant
same,"Total Impurities (HPLC-UV, 230 nm), %","[1]; 1 week, 50 C. sealed, listed as Nitrate",1.0%
same,"Total Impurities (HPLC-UV, 230 nm), %","[1]; 1 week, 50 C./75% RH, listed as Nitrate",1.0%
same,"Total Impurities (HPLC-UV, 230 nm), %","[1]; 1 week, 80 C. sealed, listed as Nitrate",1.0%
same,"Total Impurities (HPLC-UV, 230 nm), %","[1]; 1 week, 80 C./75% RH, listed as Nitrate",1.1%
